Data as given in paper PMC5834492, “Antimycobacterial drug discovery using Mycobacteria-infected amoebae identifies anti-infectives and new molecular targets” (Scientific Reports, 2018).
“Also recorded” adds a separate entry of the source.

Experiments:
[1] = test system: M. marinum in A. castellanii; type: cell-based, Mycobacterium marinum
[2] = test system: M. bovis BCG pMV261 (empty plasmid); type: cell-based, Mycobacterium bovis BCG
[3] = test system: M. marinum luxCDABE; type: cell-based, Mycobacterium marinum
[4] = test system: D. discoideum GFP-ABD; conditions: for D. discoideum GFP-ABD normalised growth, control=1.00, mean: 10 µM
[5] = test system: M. marinum in BV2 microglial cells; type: cell-based, Mycobacterium marinum
[6] = test system: M. marinum GFP; type: cell-based, Mycobacterium marinum; conditions: for M. marinum GFP normalised growth, control=1.00, mean: 10 µM, antibiotic assay; for antibiotic activity in M. marinum growth assay: broth
[7] = test system: M. bovis BCG pMV261-murC; type: cell-based, Mycobacterium bovis BCG
[8] = test system: Mtb H37Rv in THP-1; parameters: method as in Sorrentino et al, 2015; conditions: ref Sorrentino et al, 2015, cited from earlier work; for Intracelullar MIC90 in THP-1: THP1 / Mtb H37Rv infection assay; for Extracellular MIC90/ Inracellular MIC90: ratio
[9] = test system: Mtb H37Rv; parameters: method as in Sorrentino et al, 2015; conditions: ref Sorrentino et al, 2015; cited from earlier work
[10] = test system: BV2 cells
[11] = test system: M. bovis BCG pMV261-fbpA; type: cell-based, Mycobacterium bovis BCG
[12] = not told; cited from earlier work

CC(C)OC(=O)COc1ccc(-c2cnc(N(C)CCc3ccncc3)nc2)cc1 [GSK831784A]
A. castellanii / M. marinum normalised growth, control=1.00, mean ([1]; 10 µM): 0.20 | Hits A. castellanii/M. marinum assay True/False ([1]; 10 µM): TRUE | pXC50(1) [2]: 4.96 | pXC50(2) [2]: 4.97 | M. marinum luxCDABE normalised growth, control = 1.00, mean ([3]; 10 µM): 0,00 | M. marinum luxCDABE normalised growth, control=1.00, mean ([3]; 10 µM): 0.00 | D. discoideum GFP-ABD normalised growth, control=1.00, mean [4]: 0.98 | IC50 [5]: 15 µM | BV2 / M. marinum normalised growth, control=1.00, mean ([5]; 10 µM): 0.97 | hit in BV2/M. marinum assay True/False ([5]; 10 µM): FALSE | M. marinum GFP normalised growth, control=1.00, mean [6]: 0.10 | antibiotic activity in M. marinum growth assay [6]: strong antibiotic activity | pIC50 Shift (1) [7]: 0.32 | pIC50 Shift (2) [7]: 0.42 | pXC50(1) [7]: 4.64 | pXC50(2) [7]: 4.55

Cc1ccc2nc(C)c(-c3ccn(Cc4ccccc4)n3)n2c1 [GSK847920A]
A. castellanii / M. marinum normalised growth, control=1.00, mean ([1]; 10 µM): 1.17 | pXC50(1) [2]: 5.94 | pXC50(2) [2]: 5.99 | Intracelullar MIC90 in THP-1 [8]: 1.85 µM | Extracellular MIC90/ Inracellular MIC90 [8]: 2.7 | Extracellular MIC90 [9]: 5 µM | M. marinum luxCDABE normalised growth, control=1.00, mean ([3]; 10 µM): 0.11 | D. discoideum GFP-ABD normalised growth, control=1.00, mean [4]: 0.34 | IC50 [5]: 3.29 µM | BV2 / M. marinum normalised growth, control=1.00, mean ([5]; 10 µM): 0.95 | M. marinum GFP normalised growth, control=1.00, mean [6]: 0.36 | antibiotic activity in M. marinum growth assay [6]: strong antibiotic activity | pIC50 Shift (1) [7]: 0.49 | pIC50 Shift (2) [7]: 0.54 | pXC50(1) [7]: 5.45 | pXC50(2) [7]: 5.45

CCc1ccc(CN2CCC3(CC2)OCCc2sccc23)s1 [GSK2200160A]
Growth inhibition / Cytotoxicity assays: BV2 cells [10]: False | Intracellular infection assays: A. castellanii / M. marinum [1]: 0.77 | Intracelullar MIC90 in THP-1 [8]: 0.21 µM | Extracellular MIC90/ Inracellular MIC90 [8]: 4.76 | Extracellular MIC90 [9]: 1 µM | Antibiotic assays: M. marinum luxCDABE [3]: 0.35 | Growth inhibition / Cytotoxicity assays: D. discoideum GFP-ABD [4]: 0.03 | Intracellular infection assays: BV2 / M. marinum [5]: 1.09

COc1cc(Cc2cnc(N)nc2N)c2cnccc2c1N(C)C [GW360240X]
Growth inhibition / Cytotoxicity assays: BV2 cells [10]: False | Intracellular infection assays: A. castellanii / M. marinum [1]: 1.10 | Intracelullar MIC90 in THP-1 [8]: 50 µM | Extracellular MIC90/ Inracellular MIC90 [8]: 0.06 | Extracellular MIC90 [9]: 3 µM | Antibiotic assays: M. marinum luxCDABE [3]: 0.74 | Growth inhibition / Cytotoxicity assays: D. discoideum GFP-ABD [4]: 1.13 | Intracellular infection assays: BV2 / M. marinum [5]: 1.06

CC(C)(C)c1ccc(-c2nnc(SCC(=O)OC3CCCCC3)o2)cc1 [GW859039X]
Growth inhibition / Cytotoxicity assays: BV2 cells [10]: False | Intracellular infection assays: A. castellanii / M. marinum [1]: 0.90 | pXC50(1) [2]: 5.03 | pXC50(2) [2]: 5.04 | Intracelullar MIC90 in THP-1 [8]: 5.55 µM | Extracellular MIC90/ Inracellular MIC90 [8]: 0.31 | pIC50 Shift (1) [11]: 0.43 | pIC50 Shift (2) [11]: 0.42 | pXC50(1) [11]: 4.6 | pXC50(2) [11]: 4.62 | Extracellular MIC90 [9]: 1.7 µM | Antibiotic assays: M. marinum luxCDABE [3]: 0.075 | Growth inhibition / Cytotoxicity assays: D. discoideum GFP-ABD [4]: 0.68 | Intracellular infection assays: BV2 / M. marinum [5]: 1.04 | antibiotic activity in M. marinum growth assay [6]: strong antibiotic activity

O=C(C=Cc1ccccc1)N1CCN(Cc2ccc3c(c2)OCO3)CC1 [SB-516933]
Growth inhibition / Cytotoxicity assays: BV2 cells [10]: False | Intracellular infection assays: A. castellanii / M. marinum [1]: 1.12 | Intracelullar MIC90 in THP-1 [8]: 5.55 µM | Extracellular MIC90/ Inracellular MIC90 [8]: 0.67 | Extracellular MIC90 [9]: 3.7 µM | Antibiotic assays: M. marinum luxCDABE [3]: 0.41 | Growth inhibition / Cytotoxicity assays: D. discoideum GFP-ABD [4]: 0.97 | Intracellular infection assays: BV2 / M. marinum [5]: 1.10

O=C(c1[nH]nc2c1CCCC2)N1CCN(Cc2ccc3c(c2)OCO3)CC1 [SB-712970]
Growth inhibition / Cytotoxicity assays: BV2 cells [10]: False | Intracellular infection assays: A. castellanii / M. marinum [1]: 1.13 | Intracelullar MIC90 in THP-1 [8]: 5.55 µM | Extracellular MIC90/ Inracellular MIC90 [8]: 0.81 | Extracellular MIC90 [9]: 4.5 µM | Antibiotic assays: M. marinum luxCDABE [3]: 0.00 | Growth inhibition / Cytotoxicity assays: D. discoideum GFP-ABD [4]: 0.79 | Intracellular infection assays: BV2 / M. marinum [5]: 1.28

CCCCc1ccc(C(=O)Nc2nccc3ccccc23)nc1 [SB-746177]
Growth inhibition / Cytotoxicity assays: BV2 cells [10]: False | Intracellular infection assays: A. castellanii / M. marinum [1]: 1.01 | Intracelullar MIC90 in THP-1 [8]: 1.85 µM | Extracellular MIC90/ Inracellular MIC90 [8]: 4.97 | Extracellular MIC90 [9]: 9.2 µM | Antibiotic assays: M. marinum luxCDABE [3]: 0.00 | Growth inhibition / Cytotoxicity assays: D. discoideum GFP-ABD [4]: 0.92 | Intracellular infection assays: BV2 / M. marinum [5]: 1.27

NCC[C@H](O)C(=O)N[C@@H]1C[C@H](N)[C@@H](O[C@H]2O[C@H](CN)[C@@H](O)[C@H](O)[C@H]2O)[C@H](O)[C@H]1O[C@H]1O[C@H](CO)[C@@H](O)[C@H](N)[C@H]1O [amikacin, reference compound]
cellular permeability [12]: low cellular permeability | effect of amikacin on intracellular mycobacteria growth [5]: has an effect on mycobacteria growth inside BV2 cells; also recorded: exerts a significant effect on intracellular bacteria
